A short description of this data set: Analysis of solubility of paracetamol batches (Table 2). Type of data set: physicochemical. As to conditions: limit: soluble in ethanol (95%) and in acetone, sparingly soluble in water, very slightly soluble in dichloro-methane and ether. As to the method:
For the analysis of solubility, the paracetamol obtained using the present invention should be soluble in ethanol (95%) and soluble in acetone, sparingly soluble in water, very slightly soluble in dichloro-methane and ether. For identification purpose, the IR spectra should match the standard IR spectrum. The impurities were determined according to European and Indian pharmacopeia.

The record followed here is US12103900B2, “Environment-friendly process for selective acylation of aminophenol” (LAXMI ORGANIC INDUSTRIES LTD, priority 2020, dated 2024).

With `CC(=O)Nc1ccc(O)cc1` [Ex. 9, N-acetyl-para-aminophenol], the Solubility result is “Complies”.
